Experimental data as given in ChEMBL document CHEMBL3885881, “DrugMatrix”.

Species on record: Rattus norvegicus
Experiment: DrugMatrix - Regimen: Daily Repeat
Type: toxicity, organism-based, Sprague-Dawley
Set-up: regimen Daily Repeat, gender Male, age 6-8 weeks
Conditions: in vivo, po, route oral GAVAGE, vehicle .5 % CMC; for BASOPHIL / EOSINOPHIL / ERYTHROCYTE COUNT / HEMATOCRIT / HEMOGLOBIN / LEUKOCYTE COUNT / LYMPHOCYTE / MEAN CORPUSCULAR HEMOGLOBIN / MEAN CORPUSCULAR HEMOGLOBIN CONCENTRATION / MEAN CORPUSCULAR VOLUME / MONOCYTE / NEUTROPHIL / PLATELET COUNT: tissue Blood; for ALANINE AMINOTRANSFERASE / ALBUMIN / ALKALINE PHOSPHATASE / ASPARTATE AMINOTRANSFERASE / BLOOD UREA NITROGEN / CHLORIDE / CHOLESTEROL / CREATINE PHOSPHOKINASE / CREATININE / GLUCOSE / PHOSPHORUS / POTASSIUM / SODIUM / TOTAL BILIRUBIN / TOTAL PROTEIN: tissue Plasma
[1] = 0 mg/kg, 72 h, dose level Control, time 3 day
[2] = 0 mg/kg, 120 h, dose level Control, time 5 day
[3] = 3 mg/kg, 72 h, dose level Low, time 3 day
[4] = 3 mg/kg, 120 h, dose level Low, time 5 day

With `O=C1CCC(N2C(=O)c3ccccc3C2=O)C(=O)N1` (configuration not stated) [THALIDOMIDE] the BASOPHIL [1] was 1.52%, the EOSINOPHIL [1] was 0.98% and the “ERYTHROCYTE COUNT” value [1] was 6.96 x10E6/uL. For the same compound, the HEMATOCRIT [1] was 44.65%, the HEMOGLOBIN [1] was 13.62 G/DL and the “LEUKOCYTE COUNT” value [1] was 9.83 x10E3/uL. For the same compound, the LYMPHOCYTE [1] was 76.48%, the “MEAN CORPUSCULAR HEMOGLOBIN” value [1] was 19.57 pg and the “MEAN CORPUSCULAR HEMOGLOBIN CONCENTRATION” value [1] was 30.47 G/DL. The “MEAN CORPUSCULAR VOLUME” value [1] was 64.22 fL, the MONOCYTE [1] was 2.13% and the NEUTROPHIL [1] was 18.6%. For the same compound, the “PLATELET COUNT” value [1] was 1217.17 x10E3/uL, the “ALANINE AMINOTRANSFERASE” value [1] was 41 u/L and the ALBUMIN [1] was 3.77 G/DL. For the same compound, the “ALKALINE PHOSPHATASE” value [1] was 411.83 u/L, the “ASPARTATE AMINOTRANSFERASE” value [1] was 62.83 u/L and the “BLOOD UREA NITROGEN” value [1] was 15.17 mg/dL. For the same compound, the CHLORIDE [1] was 104.33 MEQ/L, the CHOLESTEROL [1] was 71.17 mg/dL and the “CREATINE PHOSPHOKINASE” value [1] was 123.5 u/L. The CREATININE [1] was 0.55 mg/dL, the GLUCOSE [1] was 182.67 mg/dL and the PHOSPHORUS [1] was 11.23 mg/dL. The POTASSIUM [1] was 7.03 MEQ/L, the SODIUM [1] was 148 MEQ/L and the “TOTAL BILIRUBIN” value [1] was 0.57 mg/dL. For the same compound, the “TOTAL PROTEIN” value [1] was 6.85 G/DL, the BASOPHIL [2] was 1.35% and the EOSINOPHIL [2] was 0.43%. For the same compound, the “ERYTHROCYTE COUNT” value [2] was 6.96 x10E6/uL, the HEMATOCRIT [2] was 44.35% and the HEMOGLOBIN [2] was 13.98 G/DL. The “LEUKOCYTE COUNT” value [2] was 9.45 x10E3/uL, the LYMPHOCYTE [2] was 80.83% and the “MEAN CORPUSCULAR HEMOGLOBIN” value [2] was 20.1 pg. For the same compound, the “MEAN CORPUSCULAR HEMOGLOBIN CONCENTRATION” value [2] was 31.52 G/DL, the “MEAN CORPUSCULAR VOLUME” value [2] was 63.72 fL and the MONOCYTE [2] was 2.37%. The NEUTROPHIL [2] was 14.05%, the “PLATELET COUNT” value [2] was 1298 x10E3/uL and the “ALANINE AMINOTRANSFERASE” value [2] was 42.17 u/L. The ALBUMIN [2] was 3.77 G/DL, the “ALKALINE PHOSPHATASE” value [2] was 419 u/L and the “ASPARTATE AMINOTRANSFERASE” value [2] was 66.67 u/L. For the same compound, the “BLOOD UREA NITROGEN” value [2] was 16.67 mg/dL, the CHLORIDE [2] was 103.17 MEQ/L and the CHOLESTEROL [2] was 66.33 mg/dL. For the same compound, the “CREATINE PHOSPHOKINASE” value [2] was 148.33 u/L, the CREATININE [2] was 0.58 mg/dL and the GLUCOSE [2] was 196.83 mg/dL. It also gave a PHOSPHORUS [2] of 11.8 mg/dL, a POTASSIUM [2] of 6.47 MEQ/L and an SODIUM [2] of 148.33 MEQ/L. For the same compound, the “TOTAL BILIRUBIN” value [2] was 0.53 mg/dL, the “TOTAL PROTEIN” value [2] was 6.77 G/DL and the BASOPHIL [3] was 1.53%. The EOSINOPHIL [3] was 0.27%, the “ERYTHROCYTE COUNT” value [3] was 6.9 x10E6/uL and the HEMATOCRIT [3] was 43.27%. For the same compound, the HEMOGLOBIN [3] was 13.43 G/DL, the “LEUKOCYTE COUNT” value [3] was 12.1 x10E3/uL and the LYMPHOCYTE [3] was 84.1%. For the same compound, the “MEAN CORPUSCULAR HEMOGLOBIN” value [3] was 19.47 pg, the “MEAN CORPUSCULAR HEMOGLOBIN CONCENTRATION” value [3] was 31.03 G/DL and the “MEAN CORPUSCULAR VOLUME” value [3] was 62.73 fL. The MONOCYTE [3] was 2.13%, the NEUTROPHIL [3] was 11.37% and the “PLATELET COUNT” value [3] was 1452.67 x10E3/uL. For the same compound, the “ALANINE AMINOTRANSFERASE” value [3] was 33 u/L, the ALBUMIN [3] was 3.63 G/DL and the “ALKALINE PHOSPHATASE” value [3] was 276 u/L. For the same compound, the “ASPARTATE AMINOTRANSFERASE” value [3] was 53.33 u/L, the “BLOOD UREA NITROGEN” value [3] was 11 mg/dL and the CHLORIDE [3] was 103 MEQ/L. The CHOLESTEROL [3] was 57.67 mg/dL, the “CREATINE PHOSPHOKINASE” value [3] was 135.33 u/L and the CREATININE [3] was 0.5 mg/dL. For the same compound, the GLUCOSE [3] was 177.33 mg/dL, the PHOSPHORUS [3] was 12.77 mg/dL and the POTASSIUM [3] was 6.87 MEQ/L. For the same compound, the SODIUM [3] was 148.67 MEQ/L, the “TOTAL BILIRUBIN” value [3] was 0.33 mg/dL and the “TOTAL PROTEIN” value [3] was 6.27 G/DL. For the same compound, the BASOPHIL [4] was 2.03%, the EOSINOPHIL [4] was 0.3% and the “ERYTHROCYTE COUNT” value [4] was 6.85 x10E6/uL. For the same compound, the HEMATOCRIT [4] was 42.57%, the HEMOGLOBIN [4] was 13.47 G/DL and the “LEUKOCYTE COUNT” value [4] was 11.43 x10E3/uL. The LYMPHOCYTE [4] was 80.43%, the “MEAN CORPUSCULAR HEMOGLOBIN” value [4] was 19.63 pg and the “MEAN CORPUSCULAR HEMOGLOBIN CONCENTRATION” value [4] was 31.7 G/DL. The “MEAN CORPUSCULAR VOLUME” value [4] was 62.13 fL, the MONOCYTE [4] was 3.03% and the NEUTROPHIL [4] was 13.67%. The “PLATELET COUNT” value [4] was 1535.33 x10E3/uL, the “ALANINE AMINOTRANSFERASE” value [4] was 37 u/L and the ALBUMIN [4] was 3.47 G/DL. The “ALKALINE PHOSPHATASE” value [4] was 320 u/L, the “ASPARTATE AMINOTRANSFERASE” value [4] was 57 u/L and the “BLOOD UREA NITROGEN” value [4] was 12 mg/dL. For the same compound, the CHLORIDE [4] was 102.67 MEQ/L, the CHOLESTEROL [4] was 62.33 mg/dL and the “CREATINE PHOSPHOKINASE” value [4] was 138 u/L. For the same compound, the CREATININE [4] was 0.5 mg/dL, the GLUCOSE [4] was 187.67 mg/dL and the PHOSPHORUS [4] was 11.93 mg/dL. The POTASSIUM [4] was 6.03 MEQ/L, the SODIUM [4] was 146.33 MEQ/L and the “TOTAL BILIRUBIN” value [4] was 0.3 mg/dL. The “TOTAL PROTEIN” value [4] was 6.13 G/DL.
